Assay results taken from PubChem BioAssay AID256 (DTP/NCI, 2004).
Where “and” joins values, the source holds several entries; their conditions need not be identical. Equal entries are not always repeated. Inconclusive results and toxic doses are left out. The calls were made as follows: active = survival T/C of 150% or more; inactive = T/C below 125% in these data.

Test system: CD2F1 mice, L1210 leukemia ip, survival T/C
Assay: NCI In Vivo Anticancer Drug Screen. Data for tumor model L1210 Leukemia (intraperitoneal) in CD2F1 (CDF1) mice
Conditions: higher = longer survival
Method in brief: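 In this screen, transplantable tumors were grown in mice given either the compound or its vehicle. Results were expressed as the treated measurement relative to the control measurement.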

[1] = endpoint: mean survival time, dose: 100.0 mg/kg/injection, schedule: Q04DX002 (ip), vehicle: saline with Tween-80
[2] = endpoint: mean survival time, dose: 200.0 mg/kg/injection, schedule: Q04DX002 (ip), vehicle: saline with Tween-80
[3] = endpoint: mean survival time, dose: 400.0 mg/kg/injection, schedule: Q04DX002 (ip), vehicle: saline with Tween-80
[4] = endpoint: mean survival time, dose: 100.0 mg/kg/injection, schedule: Q04DX003 (ip), vehicle: saline with Tween-80
[5] = endpoint: mean survival time, dose: 200.0 mg/kg/injection, schedule: Q04DX003 (ip), vehicle: saline with Tween-80
[6] = endpoint: mean survival time, dose: 50.0 mg/kg/injection, schedule: Q01DX009 (ip), vehicle: saline with Tween-80
[7] = endpoint: mean survival time, dose: 100.0 mg/kg/injection, schedule: Q01DX009 (ip), vehicle: saline with Tween-80
[8] = endpoint: mean survival time, dose: 200.0 mg/kg/injection, schedule: Q01DX009 (ip), vehicle: saline with Tween-80
[9] = endpoint: mean survival time, dose: 400.0 mg/kg/injection, schedule: Q01DX009 (ip), vehicle: saline with Tween-80
[10] = endpoint: mean survival time, dose: 6.25 mg/kg/injection, schedule: Q01DX009 (ip), vehicle: saline with Tween-80
[11] = endpoint: mean survival time, dose: 12.5 mg/kg/injection, schedule: Q01DX009 (ip), vehicle: saline with Tween-80
[12] = endpoint: mean survival time, dose: 25.0 mg/kg/injection, schedule: Q01DX009 (ip), vehicle: saline with Tween-80
[13] = endpoint: mean survival time, dose: 400.0 mg/kg/injection, schedule: Q04DX003 (ip), vehicle: saline with Tween-80

Measured: T/C

Cc1ccccc1N=C(c1ccccc1)C1C(=O)c2ccccc2C1=O
inactive: endpoint: median survival time, dose: 50.0 mg/kg/injection, schedule: Q01DX005 (ip), vehicle: DMSO 103 % of control | endpoint: median survival time, dose: 100.0 mg/kg/injection, schedule: Q01DX005 (ip), vehicle: DMSO 100 % of control | endpoint: median survival time, dose: 200.0 mg/kg/injection, schedule: Q01DX005 (ip), vehicle: DMSO 103 % of control | endpoint: median survival time, dose: 400.0 mg/kg/injection, schedule: Q01DX005 (ip), vehicle: DMSO 101 % of control | endpoint: median survival time, dose: 800.0 mg/kg/injection, schedule: Q01DX005 (ip), vehicle: DMSO 100 % of control

CN(N=Nc1ccc(C(N)=O)cc1)C(C)(C)C
inactive: endpoint: mean survival time, dose: 18.75 mg/kg/injection, schedule: Q01DX009 (ip), vehicle: Klucel (hydroxypropylcellulose) (HPC) 97 % of control | endpoint: mean survival time, dose: 37.5 mg/kg/injection, schedule: Q01DX009 (ip), vehicle: Klucel (hydroxypropylcellulose) (HPC) 101 % of control | endpoint: mean survival time, dose: 75.0 mg/kg/injection, schedule: Q01DX009 (ip), vehicle: Klucel (hydroxypropylcellulose) (HPC) 100 % of control | endpoint: mean survival time, dose: 150.0 mg/kg/injection, schedule: Q01DX009 (ip), vehicle: Klucel (hydroxypropylcellulose) (HPC) 106 % of control | endpoint: mean survival time, dose: 300.0 mg/kg/injection, schedule: Q01DX009 (ip), vehicle: Klucel (hydroxypropylcellulose) (HPC) 119 % of control

C/C(=C\CC(=O)C/C=C(\C)CCCC(C)CCCC(C)CCCC(C)C)CCCC(C)CCCC(C)CCCC(C)C (stereo not given)
inactive: [1] 103 % of control | [2] 103 % of control | [3] 96 % of control

CS(=O)(=O)c1ccncc1
inactive: endpoint: mean survival time, dose: 100.0 mg/kg/injection, schedule: Q04DX003 (ip), vehicle: saline sonified 95 % of control | endpoint: mean survival time, dose: 200.0 mg/kg/injection, schedule: Q04DX003 (ip), vehicle: saline sonified 98 % of control

COc1ccc(NC(=O)Oc2c(Cl)cc(Cl)c3ccccc23)cc1
inactive: [1] 93 % of control | [2] 93 % of control | [3] 101 % of control

COc1ccc2c(OC)cccc2c1
inactive: endpoint: mean survival time, dose: 100.0 mg/kg/injection, schedule: Q04DX003 (ip), vehicle: other 102 % of control | endpoint: mean survival time, dose: 200.0 mg/kg/injection, schedule: Q04DX003 (ip), vehicle: other 112 % of control | endpoint: mean survival time, dose: 400.0 mg/kg/injection, schedule: Q04DX003 (ip), vehicle: other 101 % of control

O=C1OC(Cc2ccccc2)(c2ccccc2)c2ccccc21 (stereo not given)
inactive: [4] 88 % of control | [5] 88 % of control

CCCC/C=C/C(=O)O
inactive: [6] 98 % of control | [7] 98 % of control | [8] 102 % of control

CC(=O)OCC1OC(Oc2ccccc2)C(OC(C)=O)C(OC(C)=O)C1OC(C)=O (stereo not given)
inactive: endpoint: median survival time, dose: 50.0 mg/kg/injection, schedule: Q04DX002 (ip), vehicle: saline with Tween-80 100 % of control | endpoint: median survival time, dose: 100.0 mg/kg/injection, schedule: Q04DX002 (ip), vehicle: saline with Tween-80 100 % of control | endpoint: median survival time, dose: 200.0 mg/kg/injection, schedule: Q04DX002 (ip), vehicle: saline with Tween-80 111 % of control | endpoint: median survival time, dose: 400.0 mg/kg/injection, schedule: Q04DX002 (ip), vehicle: saline with Tween-80 88 % of control

CCCNC(=O)Oc1cccc(NC(=O)CC)c1
inactive: [7] 96 % of control | [9] 89 % of control

Nc1[nH]c(=O)ncc1C(=O)NC(CO)C(=O)O (stereo not given)
inactive: [10] 100 % of control | [11] 102 % of control | [12] 104 % of control

[O-][n+]1ccnc2ccccc21
inactive: endpoint: mean survival time, dose: 100.0 mg/kg/injection, schedule: Q04DX002 (ip), vehicle: saline 105 % of control | endpoint: mean survival time, dose: 200.0 mg/kg/injection, schedule: Q04DX002 (ip), vehicle: saline 116 % of control | endpoint: mean survival time, dose: 400.0 mg/kg/injection, schedule: Q04DX002 (ip), vehicle: saline 108 % of control

CC(=O)N(C)c1ccc(NC(=O)Nc2ccc(C)c(C)c2)cc1
inactive: [6] 91 % of control | [7] 91 % of control | [8] 88 % of control

COC(=O)/C(Br)=C/N(Cc1ccccc1)Cc1ccccc1
inactive: endpoint: mean survival time, dose: 100.0 mg/kg/injection, schedule: Q01DX009 (ip), vehicle: saline sonified 101 % of control | [4] 94 % of control | endpoint: mean survival time, dose: 200.0 mg/kg/injection, schedule: Q01DX009 (ip), vehicle: saline sonified 101 % of control | [5] 93 % of control | endpoint: mean survival time, dose: 400.0 mg/kg/injection, schedule: Q01DX009 (ip), vehicle: saline sonified 103 % of control | [13] 96 % of control

CCOC(=O)C(OCC)C1=Cc2ccccc2CC1 (stereo not given)
inactive: endpoint: mean survival time, dose: 12.5 mg/kg/injection, schedule: Q01DX005 (ip), vehicle: Klucel (hydroxypropylcellulose) (HPC) 97 % of control | endpoint: mean survival time, dose: 25.0 mg/kg/injection, schedule: Q01DX005 (ip), vehicle: Klucel (hydroxypropylcellulose) (HPC) 97 % of control | endpoint: mean survival time, dose: 50.0 mg/kg/injection, schedule: Q01DX005 (ip), vehicle: Klucel (hydroxypropylcellulose) (HPC) 98 % of control | endpoint: mean survival time, dose: 100.0 mg/kg/injection, schedule: Q01DX005 (ip), vehicle: Klucel (hydroxypropylcellulose) (HPC) 93 % of control | endpoint: mean survival time, dose: 200.0 mg/kg/injection, schedule: Q01DX005 (ip), vehicle: Klucel (hydroxypropylcellulose) (HPC) 89 % of control | endpoint: mean survival time, dose: 400.0 mg/kg/injection, schedule: Q01DX005 (ip), vehicle: Klucel (hydroxypropylcellulose) (HPC) 98 % of control

O=C(OCC1OCOC1C1OCOC1COC(=O)c1ccccc1)c1ccccc1 (stereo not given)
inactive: endpoint: mean survival time, dose: 100.0 mg/kg/injection, schedule: Q04DX003 (ip), vehicle: Klucel (hydroxypropylcellulose) (HPC) 102 % of control | endpoint: mean survival time, dose: 200.0 mg/kg/injection, schedule: Q04DX003 (ip), vehicle: Klucel (hydroxypropylcellulose) (HPC) 97 % of control | endpoint: mean survival time, dose: 400.0 mg/kg/injection, schedule: Q04DX003 (ip), vehicle: Klucel (hydroxypropylcellulose) (HPC) 91 % of control

CCCCCCC#CC(O)CC (stereo not given)
inactive: [6] 97 % of control | [7] 105 % of control

O=C(O)c1ccccc1C(=O)OC1CCC2CCCCC2C1 (stereo not given)
inactive: [7] 98 % of control | [4] 97 % of control | [8] 95 % of control | [5] 92 % of control | [9] 98 % of control | [13] 101 % of control

CCCCOC(=O)Cc1c(C)[nH]c2ccc(-c3ccccc3)cc12
inactive: endpoint: mean survival time, dose: 50.0 mg/kg/injection, schedule: Q04DX002 (ip), vehicle: saline with Tween-80 102 % of control | [1] 102 % of control | [2] 97 % of control

O=C(CBr)CC(=O)Nc1ccccc1
inactive: endpoint: mean survival time, dose: 50.0 mg/kg/injection, schedule: Q04DX003 (ip), vehicle: saline with Tween-80 101 % of control | [4] 88 % of control

CS(=O)(=O)OCCN(CCOS(C)(=O)=O)c1ccc(C=O)cc1
inactive: endpoint: mean survival time, dose: 3.12 mg/kg/injection, schedule: Q01DX009 (ip), vehicle: saline with Tween-80 113 % of control and 115 % of control | [10] 115 % of control and 112 % of control | [11] 117 % of control | endpoint: mean survival time, dose: 12.5 mg/kg/injection, schedule: Q01DX009 (ip), vehicle: saline 96 % of control | [12] 112 % of control | endpoint: mean survival time, dose: 25.0 mg/kg/injection, schedule: Q01DX009 (ip), vehicle: saline 102 % of control | [6] 95 % of control

O=C1CCCCCC1c1ccccc1 (stereo not given)
inactive: [7] 102 % of control | [8] 102 % of control | [9] 98 % of control

C=CCc1cc(O)c(CC=C)cc1O
inactive: [1] 95 % of control | [2] 95 % of control

CC(=O)CC(C)(C)C1CCCCC1
inactive: endpoint: mean survival time, dose: 25.0 mg/kg/injection, schedule: Q01DX009 (ip), vehicle: Klucel (hydroxypropylcellulose) (HPC) 93 % of control | endpoint: mean survival time, dose: 50.0 mg/kg/injection, schedule: Q01DX009 (ip), vehicle: Klucel (hydroxypropylcellulose) (HPC) 93 % of control | endpoint: mean survival time, dose: 100.0 mg/kg/injection, schedule: Q01DX009 (ip), vehicle: Klucel (hydroxypropylcellulose) (HPC) 96 % of control | endpoint: mean survival time, dose: 200.0 mg/kg/injection, schedule: Q01DX009 (ip), vehicle: Klucel (hydroxypropylcellulose) (HPC) 93 % of control

CC(=O)Nc1ccc2c(c1)C(=O)c1cc(NC(C)=O)ccc1-2
inactive: endpoint: mean survival time, dose: 100.0 mg/kg/injection, schedule: Q01DX001 (ip), vehicle: saline with Tween-80 98 % of control | endpoint: mean survival time, dose: 200.0 mg/kg/injection, schedule: Q01DX001 (ip), vehicle: saline with Tween-80 111 % of control | endpoint: mean survival time, dose: 400.0 mg/kg/injection, schedule: Q01DX001 (ip), vehicle: saline with Tween-80 98 % of control

CCCCCCCCC(C(=O)c1ccccc1)=C(C(F)(F)F)C(F)(F)F
inactive: [7] 91 % of control

NS(=O)(=O)c1cccc([As](=O)(O)O)c1
inactive: endpoint: mean survival time, dose: 50.0 mg/kg/injection, schedule: Q04DX003 (ip), vehicle: saline 105 % of control | endpoint: mean survival time, dose: 100.0 mg/kg/injection, schedule: Q04DX003 (ip), vehicle: saline 95 % of control | endpoint: mean survival time, dose: 200.0 mg/kg/injection, schedule: Q04DX003 (ip), vehicle: saline 94 % of control

CC1CC=CCC1/C=N\Nc1ccc([N+](=O)[O-])cc1[N+](=O)[O-] (stereo not given)
inactive: [4] 98 % of control | [5] 94 % of control | [13] 100 % of control
